Assay results as given in PubChem BioAssay (NCI).
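96-well plates; 48 h exposure; 5 concentrations. Endpoints by linear interpolation between flanking doses. Not reached: highest tested concentration assigned. TGI denotes the concentration required for complete inhibition of growth.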

Key:
Assay in all cases: NCI tumour cell line growth inhibition, 48 h
[1] = system: EKVX NSCLC
[2] = system: OVCAR-8 ovarian
[3] = system: HOP-92 NSCLC
[4] = system: NCI-H226 lung
[5] = system: SF-295 CNS
[6] = system: SN12C renal
[7] = system: SK-MEL-28 melanoma
[8] = system: HCT-15 colon
[9] = system: KM12 colon
[10] = system: U251 CNS

Row | Structure (SMILES) | TGI [1] [µM] | TGI [2] [µM] | TGI [3] [µM] | TGI [4] [µM] | TGI [5] [µM] | TGI [6] [µM] | TGI [7] [µM] | TGI [8] [µM] | TGI [9] [µM] | TGI [10] [µM]
1 | c1ccc(CN2CCC(=NN3CCCCC3)CC2)cc1 | > 100 | > 100 | > 100 | > 100 | > 100 | > 100 | > 100 | > 100 | > 100 | > 100
2 | CCOC(=O)Cc1c(C)c2ccc(OC(C)=O)c(OC(C)=O)c2oc1=O | > 100 | 57.3 | 71.3 | 94.3 | > 100 | > 100 | > 100 | > 100 | > 100 | > 100
3 | O=C(O)c1cc2ccccc2c(Cc2c(O)c(C(=O)O)cc3ccccc23)c1O | > 100 | > 100 | > 100 | > 100 | > 100 | > 100 | > 100 | > 100 | > 100 | > 100
4 | Clc1ccc(Nc2ncco2)cc1Cl | > 10 | > 10 | > 10 | > 10 | > 10 | > 10 | > 10 | > 10 | > 10 | > 10
5 | CC1=C(C(=O)NNC(=O)Cc2ccccc2)CC(C(=O)NNC(=O)Cc2ccccc2)=C(C)N1 | > 100 | > 100 | > 100 | > 100 | > 100 | > 100 | > 100 | > 100 | > 100 | > 100
6 | CCCNC1=C2C[C@@H](C)C[C@@H](OC)[C@@H](OC(=O)CCCN)[C@H](C)/C=C(\C)[C@@H](OC(N)=O)[C@H](OC)/C=C\C=C(/C)C(=O)NC(=CC1=O)C2=O | 37.5 | 43.7 | 25.8 | 39.8 | 36.8 | > 48.8 | 36.1 | 46.8 | 26.1 | > 35
7 | CN(C)c1ccc(/C=C/C(=O)c2cc(C(C)(C)C)c(O)c(C(C)(C)C)c2)cc1 | > 100 | > 100 | > 100 | > 65.9 | 5.33 | > 38.7 | > 100 | > 100 | > 25.7 | 5.79
8 | C=C1C(=O)OC2C1CCC(=C)C1CC(O)C(=C)C12 (stereo not given) | 20.3 | 60.4 | 11.3 | > 63.1 | > 100 | 31.9 | 32 | 25.1 | 30.4 | 50.3
9 | CC(=O)c1ccc(N2C(=O)C3c4[nH]c5ccccc5c4C4CCC(C(C)(C)C)CC4C3C2=O)cc1 (stereo not given) | 94.1 | 54.7 | 47.1 | 47.6 | 88.9 | 32.8 | 83.2 | 92.8 |  | 39.8
10 | C=C1CC[C@@]2(C)[C@@H]([C@@H]1C)[C@H]1CC[C@@H]3[C@@]4(C)CC[C@H](O)C(C)(C)[C@@H]4CC[C@@]3(C)[C@]1(C)C[C@@H]2O | 7.22 |  | 4.82 | 40.1 | 12.2 | > 100 | 20.3 | 11.2 | 15.8 | 
11 | CN1C(=O)N(C)C2(CCN(CC(CC3OCCO3)c3ccc(F)cc3)CC2)C1=O (stereo not given) | > 100 | > 100 | > 100 | > 100 | > 100 | > 100 | > 100 | > 100 |  | > 100
12 | O=[N+]([O-])c1ccc(CSc2nn(Cc3ccc([N+](=O)[O-])cc3)cc3ncnc2-3)cc1 | > 100 | > 100 | 30.4 | > 100 | > 100 | > 100 | 84.5 | > 100 | > 100 | 
13 | CCN(CC)CC1CCCCN1CC(=O)N1c2cc(Cl)ccc2NC(=O)CC1C (stereo not given) | > 100 | > 100 | > 100 | > 100 |  | > 100 | > 100 |  | > 100 | > 100
14 | O=C1c2ccccc2N=C(c2cc3c(cc2Cl)Sc2nccn2S3(=O)=O)OS(=O)(=O)N1c1ccccc1 | > 100 | 44.5 | > 100 | > 100 | 42.4 | > 100 |  | 50.8 | > 100 | > 100
15 | COC(CNC(=O)CNC(=O)c1ccc(C(F)(F)F)cc1)OC | > 100 | > 100 | > 100 | > 100 | > 100 | > 100 |  | > 100 | > 100 | > 100
16 | CC(=O)N1C(C(=O)NN2CCOCC2)CSC1c1ccccc1 (stereo not given) | > 100 | > 100 | > 100 | > 100 | > 100 | > 100 |  | > 100 | > 100 | > 100
